From the OPERA property sets (Mansouri et al. 2018)

Compound | logP
CCC(C(=O)OCc1ccccc1)C(COC(=O)c1ccccc1)Cc1cncn1C (configuration not stated) | 4.37
CCNC(=O)NS(=O)(=O)c1ccc(C)cc1 | 1.14
CCC1OC(=O)C(C)C(OC2CC(C)(OC)C(O)C(C)O2)C(C)C(OC2OC(C)CC(N(C)C)C2O)C(C)(O)CC(C)C(=O)C(C)C(OC(C)=O)C1(C)O (configuration not stated) | 2.85
O=C1C2C3C=CC(C4C=CC43)C2C(=O)N1CCCCN1CCN(c2ncccn2)CC1 (configuration not stated) | 1.79
O=[N+]([O-])c1cn(CCN2CCOCC2)cn1 | -0.38
CCCCCCCCc1ccccc1 | 6.3
CCCCCCCCCCCCCc1ccc(O)cc1 | 8.2
O=C(c1ccc(-c2ccccc2)cc1)c1ccc2n1CCC2C(=O)O (configuration not stated) | 4.27
O=C(c1ccc(Cl)cc1Cl)c1ccc2n1CCC2C(=O)O (configuration not stated) | 3.56
CCc1nc(N)nc(N)c1-c1ccc(Cl)c(Cl)c1 | 3.03
Cc1cnc2n(c1=O)CCCC2C (configuration not stated) | 0.69
CC(O)c1ccc2ccccc2c1 (configuration not stated) | 2.68
CCCOc1ccc(CC(=O)O)cc1 | 2.31
Nc1nnc(CCc2ccccc2)o1 | 1.19
CC(C)C(Nc1ccccc1)C(=O)OCc1ccccc1 (configuration not stated) | 4.41
CCN1CC(C(O)C(CC2CCCCC2)NC(=O)C(Cc2c[nH]cn2)NC(=O)C(Cc2ccc(OC)cc2)NC(=O)N2CC(OCOCCOC)C(OCOCCOC)C2)OC1=O (configuration not stated) | 1.67
CCCCCc1cc(OC)c2c(c1)OC(C)(C)C1CC=C(C)CC21 (configuration not stated) | 8.06
CNC1CC2CC1c1ccccc12 (configuration not stated) | 2.32
CSC(C)=NOC(=O)N(C)SN(C(=O)N(C)C)C1CC1 | 2
CCCCCCCc1ccncc1 | 5
CCCn1c(=O)[nH]c(=O)c2[nH]cnc21 | 0.33
CCN(CCO)Cc1cccc(COc2ccccc2)c1 | 3.04
CC(=O)OCC1=C(C(=O)OCOC(=O)C(C)(C)C)N2C(=O)C(NC(=O)Cc3cccs3)C2SC1 (configuration not stated) | 1.57

Compound | logP
Nc1ccc(S(=O)(=O)Nc2ccc([N+](=O)[O-])cc2)cc1 | 2.14
Cc1cccc(C)c1OC(=O)c1ccc(N)cc1O | 3.88
CCC(CC)(C(=O)NC(N)=O)C(=O)OCc1ccccc1 | 2.74
CNC(C)C(OC)c1ccccc1 (configuration not stated) | 2.05
CC(=O)c1ccc(S(=O)(=O)NC(=O)NC2CCCCC2)cc1 | 2.44
O=[N+]([O-])c1cnc(C=Cc2ccc3c(c2)OCO3)n1CCO | 2.03
COC(=O)c1ccc(N)cc1 | 1.37
CCC(C(=O)NC(N)=O)(C(=O)OC)c1ccccc1 (configuration not stated) | 1.58
O=c1nc(-c2ccccc2)c2ccccc2[nH]1 | 1.91
Cc1cc(C)cc(NS(=O)(=O)c2ccc(N)cc2)c1 | 2.52
COC1CC2(C)C(O)C(F)CC2C2CCc3cc(O)ccc3C12 (configuration not stated) | 2.35
Cc1cnc2n(c1=O)CCCC2 | 0.12
Cc1[nH]c2ccccc2c1C | 3.05
OC1(c2ccc(Cl)cc2)CCCCCC1n1cncn1 (configuration not stated) | 3.54
Nc1ncnc2c1ncn2C1C=CC(CO)O1 (configuration not stated) | -0.5
COc1cc(OC)c(Cl)c(Cc2cnc(N)nc2N)c1Cl | 2.55
Cc1ccc(S(=O)(=O)NC(=O)NN2CCCC2)cc1 | 0.65
Cc1cccc(C)c1NC(=O)CCCN | 0.71
Cc1cn([C@H]2C[C@H](O)[C@@H](CO)O2)c(=O)[nH]c1=O | -0.93
O=[N+]([O-])c1nccn1CCN1CCOCC1 | -0.1
CCOCc1ccccc1 | 2.16
CCC(C(=O)OCc1ccc(C)cc1)C(COC(=O)c1ccccc1)Cc1cncn1C (configuration not stated) | 4.85
O=C(COc1ccc(OCCNCC(O)COc2ccccc2)cc1)NCCCO (configuration not stated) | 0.5

Compound | logP
CCC1OC(=O)C(C)C(OC2CC(C)(OC)C(OC(C)=O)C(C)O2)C(C)C(OC2OC(C)CC(N(C)C)C2O)C(C)(O)CC(C)C(=O)C(C)C(O)C1C (configuration not stated) | 3.23
CC(C)c1ccc(S(N)(=O)=O)cc1 | 1.84
COC(=O)C(C(=O)OC)=C1SCCS1 | 1.51
COc1ccc(CC(C)N)cc1OC (configuration not stated) | 1.2
O=C(O)Cc1ccc2c(c1)C(=O)c1ccccc1CS2 | 2.97
Cc1ccc(Br)cc1N=C1NCCN1 | 1.94
Cc1cccc(C)c1NC(=O)CCCC(C)N (configuration not stated) | 1.41
C=C1C(=O)OC2C1C(OC(=O)C(C)=CC)CC(O)(CCl)C1C(OC(C)=O)C=C(C)C21O (configuration not stated) | 1.42
CCOC(=O)c1cccc(O)c1 | 2.47
ClC(Cl)=C(c1ccc(Cl)cc1)c1ccc(Cl)cc1 | 6.51
CCC(=O)Oc1c(OC)c(OC)c(OC(=O)CC)c2ccccc12 | 3.44
Cc1ccc(N(C)C)cc1 | 2.81
CC(=O)OC(C(=O)ON=C(C)C12CC3CC(CC(C3)C1)C2)c1ccccc1 (configuration not stated) | 5.89
COc1ccc(Cc2cnc(N)nc2N)cc1C(C)C | 2.79
CSC(C)=NOC(=O)N(C)SN(C)C(C)=O | 1.3
CCCCCC=CCC=CCCCCCCCC(=O)O | 7.05
Cc1ccc(S(=O)(=O)NC(=O)Nc2ccccc2)cc1 | 3.11
O=C(Cn1ccnc1[N+](=O)[O-])NC(CO)(CO)CO | -1.77
CC(=O)Oc1cc(OC(C)CCCc2ccccc2)cc2c1C1CC(O)CCC1C(C)N2C (configuration not stated) | 5.72
CCC1(CC)C(=O)NC(=O)N=C1OC(C)C | 1.86
CC12CCC(=O)C=C1CCC1C3CCC4(CCC(=O)O4)C3(C)CC(O)C12F (configuration not stated) | 2.4
CC1OC(OC2CCC3(C)C(CCC4C3CC(O)C3(C)C(C5=CC(=O)OC5)CCC43O)C2)CC(O)C1O (configuration not stated) | 1.09
CON=C(C(=O)N[C@@H]1C(=O)N2C(C(=O)O)=C(COC(N)=O)CS[C@H]12)c1ccco1 | -0.16

Compound | logP
Cc1ccc(C(O)(Cn2ccnc2)c2ccc(Br)cc2)cc1 (configuration not stated) | 3.55
O=C(NCCNCC(O)COc1ccc(-c2ncc[nH]2)cc1)Nc1ccccc1 (configuration not stated) | 1.19
CCN1CC(C(O)C(CC2CCCCC2)NC(=O)C(Cc2cnc[nH]2)NC(=O)C(Cc2ccc(OC)cc2)NC(=O)N(C)CC(O)CO)OC1=O (configuration not stated) | 1.42
CCN(CC)CCCC(=O)Nc1c(C)cccc1C | 2.06
O=C(Cn1ccnc1[N+](=O)[O-])NCC(O)CO (configuration not stated) | -1.85
CCNC(=O)c1cc(Br)cc(C)c1O | 3.61
CCC(C(=O)OCc1ccccc1)C(COC(=O)c1cccnc1)Cc1cncn1C (configuration not stated) | 3.05
CS(=O)CCn1ccnc1[N+](=O)[O-] (configuration not stated) | -1.22
OC(Cn1ccnc1)(c1ccc(F)cc1)c1ccc(-c2ccccn2)cc1 (configuration not stated) | 3.58
Cc1cc2c(ccc3ccc(=O)oc32)o1 | 2.55
Nc1ncc(Cc2cc3c(cc2Br)OCO3)c(N)n1 | 2.48
CC1c2nc3ccccc3c(=O)n2CN1CCc1ccccc1 (configuration not stated) | 1.8
Cc1cc(=O)oc2c1ccc1occc12 | 2.32
COc1ccc(CCNCC(O)COc2ccc(-c3nc(C(C)=O)c(C)[nH]3)cc2)cc1OC (configuration not stated) | 2.14
COCCNC(=O)COc1ccc(OCCNCC(O)COc2ccccc2)cc1 (configuration not stated) | 1.7
Brc1cc2ccccc2nn1 | 1.72
CCN(CC)CCOC(=O)/C=C/c1ccccc1 | 3.61
OCc1cccc2ccccc12 | 2.37
Cc1ccccc1OCC(O)CNCCOc1ccc(C(N)=O)cc1 (configuration not stated) | 2.22
Cc1cc(Br)cc(C)c1N=C1NCCN1 | 2.8
CCOC(=O)OCCC(SC(=O)OCC)=C(C)N(C=O)CC1=C(C(=O)OCOC(=O)C(C)(C)C)N2C(=O)C(NC(=O)C(=NOC)c3csc(N)n3)C2SC1 (configuration not stated) | 3.34
CCN1CC(C(O)C(CC2CCCCC2)NC(=O)C(Cc2cnc[nH]2)NC(=O)C(CC(=O)N(C)CCOCOC)Cc2ccccc2)OC1=O (configuration not stated) | 2.49
CC(C(=O)NCCO)n1ccnc1[N+](=O)[O-] (configuration not stated) | -1.16
